target: T1, BTK (Homo sapiens, UniProt Q06187); test: BTK degradation activity test in Mino cells (Westernblot or Elisa); assay type: cell-based; conditions: 24-72 h incubation
T1 construct: endogenous in cells; host or cells: Mino cells
Experimental: The Mino cell line cells are 0.5˜1 million/well in 6-well plates. The compounds are diluted to different concentrations, added to the plate, and after 24-72 h of incubation, the cells are collected. After the cells were lysed, the total protein concentration in each well was determined with a BCA kit. The amount of BTK is determined using the Westernblot or Elisa method.

T1 sequence (Q06187 whole entry): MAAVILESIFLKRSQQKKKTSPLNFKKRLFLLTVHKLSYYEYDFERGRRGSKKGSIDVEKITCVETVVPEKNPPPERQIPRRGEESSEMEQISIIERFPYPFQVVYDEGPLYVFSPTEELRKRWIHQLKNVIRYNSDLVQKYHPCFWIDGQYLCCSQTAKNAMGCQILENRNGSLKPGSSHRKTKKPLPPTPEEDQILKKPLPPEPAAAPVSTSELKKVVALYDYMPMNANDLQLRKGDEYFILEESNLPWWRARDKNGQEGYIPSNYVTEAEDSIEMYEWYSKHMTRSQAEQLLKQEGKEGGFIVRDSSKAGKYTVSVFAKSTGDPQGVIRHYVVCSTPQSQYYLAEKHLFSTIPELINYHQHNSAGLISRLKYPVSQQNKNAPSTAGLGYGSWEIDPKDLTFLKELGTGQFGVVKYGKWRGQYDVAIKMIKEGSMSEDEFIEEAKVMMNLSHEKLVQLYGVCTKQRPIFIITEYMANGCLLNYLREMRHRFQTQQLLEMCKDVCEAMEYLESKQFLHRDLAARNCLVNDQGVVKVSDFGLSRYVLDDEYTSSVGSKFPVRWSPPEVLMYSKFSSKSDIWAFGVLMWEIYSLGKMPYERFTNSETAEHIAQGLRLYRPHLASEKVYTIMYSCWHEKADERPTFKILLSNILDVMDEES

DC50, < 0.01 µM:
NC(=O)c1nnc(N2CCCCC2)nc1Nc1ccc(N2CCN(CC3CN(c4ccc5c(c4)C(=O)N(C4CCC(=O)NC4=O)C5=O)C3)CC2)cc1 (stereo not shown) [Compound 006, 5-((4-(4-((1-(2-(2,6-dioxopiperidin-3-yl)-1,3-dioxoisoindolin-5-yl)azetidin-3-yl)methyl)piperazin-1-yl)phenyl)amino)-3-(piperidin-1-yl)-1,2,4-triazine-6-carboxamide]
NC(=O)c1nnc(N2CCCCC2)nc1Nc1ccc(C2CCN(CC3CN(c4ccc5c(c4)C(=O)N(C4CCC(=O)NC4=O)C5=O)C3)CC2)cc1 (stereo not shown) [Compound 008, 5-((4-(1-((1-(2-(2,6-dioxopiperidin-3-yl)-1,3-dioxoisoindolin-5-yl)azetidin-3-yl)methyl)piperidin-4-yl)phenyl)amino)-3-(piperidin-1-yl)-1,2,4-triazine-6-carboxamide]
NC(=O)c1nnc(N2CCCCC2)nc1Nc1ccc(C2CCN(CC3CCN(c4ccc5c(c4)CN(C4CCC(=O)NC4=O)C5=O)C3)CC2)cc1 (stereo not shown) [Compound 009, 5-((4-(1-((1-(2-(2,6-dioxopiperidin-3-yl)-1-oxoisoindolin-5-yl)pyrrolidin-3-yl)methyl)piperidin-4-yl)phenyl)amino)-3-(piperidin-1-yl)-1,2,4-triazine-6-carboxamide]
NC(=O)c1nnc(N2CCCCC2)nc1Nc1ccc(C2CCN(CC3CCN(c4cc5c(cc4F)C(=O)N(C4CCC(=O)NC4=O)C5)C3)CC2)cc1 (stereo not shown) [Compound 010, 5-((4-(1-((1-(2-(2,6-dioxopiperidin-3-yl)-6-fluoro-1-oxoisoindolin-5-yl)pyrrolidin-3-yl)methyl)piperidin-4-yl)phenyl)amino)-3-(piperidin-1-yl)-1,2,4-triazine-6-carboxamide]
NC(=O)c1nnc(N2CCC[C@@H](O)C2)nc1Nc1ccc(C2CCN(CC3CCN(c4ccc5c(c4)C(=O)N(C4CCC(=O)NC4=O)C5=O)C3)CC2)cc1 (stereo partly drawn) [Compound 015, 5-((4-(1-((1-(2-(2,6-dioxopiperidin-3-yl)-1,3-dioxoisoindolin-5-yl)pyrrolidin-3-yl)methyl)piperidin-4-yl)phenyl)amino)-3-((R)-3-hydroxypiperidin-1-yl)-1,2,4-triazine-6-carboxamide]
CC[C@H](Nc1nnc(C(N)=O)c(Nc2ccc(C3CCN(CC4CCN(c5ccc6c(c5)C(=O)N(C5CCC(=O)NC5=O)C6=O)C4)CC3)cc2)n1)C(N)=O (stereo partly drawn) [Compound 017, 3-(((S)-1-amino-1-oxobutan-2-yl)amino)-5-((4-(1-((1-(2-(2,6-dioxopiperidin-3-yl)-1,3-dioxoisoindolin-5-yl)pyrrolidin-3-yl)methyl)piperidin-4-yl)phenyl)amino)-1,2,4-triazine-6-carboxamide]
CN1CCN(c2nnc(C(N)=O)c(Nc3ccc(C4CCN(CC5CCN(c6ccc7c(c6)C(=O)N(C6CCC(=O)NC6=O)C7=O)C5)CC4)cc3)n2)CC1 (stereo not shown) [Compound 018, 5-((4-(1-((1-(2-(2,6-dioxopiperidin-3-yl)-1,3-dioxoisoindolin-5-yl)pyrrolidin-3-yl)methyl)piperidin-4-yl)phenyl)amino)-3-(4-methylpiperazin-1-yl)-1,2,4-triazine-6-carboxamide]
N#Cc1cccc(Nc2nnc(C(N)=O)c(Nc3ccc(C4CCN(CC5CCN(c6ccc7c(c6)C(=O)N(C6CCC(=O)NC6=O)C7=O)C5)CC4)cc3)n2)c1 (stereo not shown) [Compound 020, 3-((3-cyanophenyl)amino)-5-((4-(1-((1-(2-(2,6-dioxopiperidin-3-yl)-1,3-dioxoisoindolin-5-yl)pyrrolidin-3-yl)methyl)piperidin-4-yl)phenyl)amino)-1,2,4-triazine-6-carboxamide]
NC(=O)c1nnc(Nc2ccccn2)nc1Nc1ccc(C2CCN(CC3CCN(c4ccc5c(c4)C(=O)N(C4CCC(=O)NC4=O)C5=O)C3)CC2)cc1 (stereo not shown) [Compound 021, 5-((4-(1-((1-(2-(2,6-dioxopiperidin-3-yl)-1,3-dioxoisoindolin-5-yl)pyrrolidin-3-yl)methyl)piperidin-4-yl)phenyl)amino)-3-(pyridin-2-ylamino)-1,2,4-triazine-6-carboxamide]
NC(=O)c1nnc(N2CC[C@@H](O)C2)nc1Nc1ccc(C2CCN(CC3CCN(c4ccc5c(c4)C(=O)N(C4CCC(=O)NC4=O)C5=O)C3)CC2)cc1 (stereo partly drawn) [Compound 022, 5-((4-(1-((1-(2-(2,6-dioxopiperidin-3-yl)-1,3-dioxoisoindolin-5-yl)pyrrolidin-3-yl)methyl)piperidin-4-yl)phenyl)amino)-3-((R)-3-hydroxypyrrolidin-1-yl)-1,2,4-triazine-6-carboxamide]
NC(=O)c1nnc(-c2nccs2)nc1Nc1ccc(C2CCN(CC3CCN(c4ccc5c(c4)C(=O)N(C4CCC(=O)NC4=O)C5=O)C3)CC2)cc1 (stereo not shown) [Compound 024, 5-((4-(1-((1-(2-(2,6-dioxopiperidin-3-yl)-1,3-dioxoisoindolin-5-yl)pyrrolidin-3-yl)methyl)piperidin-4-yl)phenyl)amino)-3-(thiazol-2-yl)-1,2,4-triazine-6-carboxamide]
NC(=O)c1nnc(-c2ncc[nH]2)nc1Nc1ccc(C2CCN(CC3CCN(c4ccc5c(c4)C(=O)N(C4CCC(=O)NC4=O)C5=O)C3)CC2)cc1 (stereo not shown) [Compound 025, 5-((4-(1-((1-(2-(2,6-dioxopiperidin-3-yl)-1,3-dioxoisoindolin-5-yl)pyrrolidin-3-yl)methyl)piperidin-4-yl)phenyl)amino)-3-(1H-imidazol-2-yl)-1,2,4-triazine-6-carboxamide]
NC(=O)c1nnc(-c2cccnc2)nc1Nc1ccc(C2CCN(CC3CCN(c4ccc5c(c4)C(=O)N(C4CCC(=O)NC4=O)C5=O)C3)CC2)cc1 (stereo not shown) [Compound 026, 5-((4-(1-((1-(2-(2,6-dioxopiperidin-3-yl)-1,3-dioxoisoindolin-5-yl)pyrrolidin-3-yl)methyl)piperidin-4-yl)phenyl)amino)-3-(pyridin-3-yl)-1,2,4-triazine-6-carboxamide]
NC(=O)c1nnc(Oc2cccc(O)c2)nc1Nc1ccc(C2CCN(CC3CCN(c4ccc5c(c4)C(=O)N(C4CCC(=O)NC4=O)C5=O)C3)CC2)cc1 (stereo not shown) [Compound 027, 5-((4-(m-((1-(2-(2,6-dioxopiperidin-3-yl)-1,3-dioxoisoindolin-5-yl)pyrrolidin-3-yl)methyl)piperidin-4-yl)phenyl)amino)-3-(3-hydroxyphenoxy)-1,2,4-triazine-6-carboxamide]
NC(=O)c1nnc(Oc2cccc(F)c2F)nc1Nc1ccc(C2CCN(CC3CCN(c4ccc5c(c4)C(=O)N(C4CCC(=O)NC4=O)C5=O)C3)CC2)cc1 (stereo not shown) [Compound 028, 3-(2,3-difluorophenoxy)-5-((4-(1-((1-(2-(2,6-dioxopiperidin-3-yl)-1,3-dioxoisoindolin-5-yl)pyrrolidin-3-yl)methyl)piperidin-4-yl)phenyl)amino)-1,2,4-triazine-6-carboxamide]
NC(=O)c1nnc(N2CCC[C@@H](N)C2)nc1Nc1ccc(C2CCN(CC3CCN(c4ccc5c(c4)C(=O)N(C4CCC(=O)NC4=O)C5=O)C3)CC2)cc1 (stereo partly drawn) [Compound 029, 3-((R)-3-aminopiperidin-1-yl)-5-((4-(1-((1-(2-(2,6-dioxopiperidin-3-yl)-1,3-dioxoisoindolin-5-yl)pyrrolidin-3-yl)methyl)piperidin-4-yl)phenyl)amino)-1,2,4-triazine-6-carboxamide]
NC(=O)c1nnc(N[C@H]2CCCC[C@H]2N)nc1Nc1ccc(C2CCN(CC3CCN(c4ccc5c(c4)C(=O)N(C4CCC(=O)NC4=O)C5=O)C3)CC2)cc1 (stereo partly drawn) [Compound 030, 3-(((1S,2R)-2-aminocyclohexyl)amino)-5-((4-(1-((1-(2-(2,6-dioxopiperidin-3-yl)-1,3-dioxoisoindolin-5-yl)pyrrolidin-3-yl)methyl)piperidin-4-yl)phenyl)amino)-1,2,4-triazine-6-carboxamide]
NC(=O)c1nnc(N2CCNCC2)nc1Nc1ccc(C2CCN(CC3CCN(c4ccc5c(c4)C(=O)N(C4CCC(=O)NC4=O)C5=O)C3)CC2)cc1 (stereo not shown) [Compound 031, 5-((4-(1-((1-(2-(2,6-dioxopiperidin-3-yl)-1,3-dioxoisoindolin-5-yl)pyrrolidin-3-yl)methyl)piperidin-4-yl)phenyl)amino)-3-(piperazin-1-yl)-1,2,4-triazine-6-carboxamide]
NC(=O)c1cnc(N[C@H]2CCCC[C@H]2N)nc1Nc1ccc(C2CCN(CC3CCN(c4ccc5c(c4)C(=O)N(C4CCC(=O)NC4=O)C5=O)C3)CC2)cc1 (stereo partly drawn) [Compound 032, 2-(((1S,2R)-2-aminocyclohexyl)amino)-4-((4-(1-((1-(2-(2,6-dioxopiperidin-3-yl)-1,3-dioxoisoindolin-5-yl)pyrrolidin-3-yl)methyl)piperidin-4-yl)phenyl)amino) pyrimidine-5-carboxamide]
NC(=O)c1cnc(N2CCCCC2)nc1Nc1ccc(N2CCN(CC3CCN(c4ccc5c(c4)C(=O)N(C4CCC(=O)NC4=O)C5=O)C3)CC2)c(F)c1 (stereo not shown) [Compound 034, 4-((4-(4-((1-(2-(2,6-dioxopiperidin-3-yl)-1,3-dioxoisoindolin-5-yl)pyrrolidin-3-yl)methyl)piperazin-1-yl)-3-fluorophenyl)amino)-2-(piperidin-1-yl) pyrimidine-5-carboxamide]
NC(=O)c1cnc(N2CCC[C@@H](O)C2)nc1Nc1ccc(C2CCN(CC3CCN(c4ccc5c(c4)C(=O)N(C4CCC(=O)NC4=O)C5=O)C3)CC2)cc1 (stereo partly drawn) [Compound 035, 4-((4-(1-((1-(2-(2,6-dioxopiperidin-3-yl)-1,3-dioxoisoindolin-5-yl)pyrrolidin-3-yl)methyl)piperidin-4-yl)phenyl)amino)-2-((R)-3-hydroxypiperidin-1-yl) pyrimidine-5-carboxamide]
NC(=O)c1cnc(N2CCCCC2)nc1Nc1ccc(C2CCN(CC3CCN(c4ccc5c(c4)C(=O)N(C4CCC(=O)NC4=O)C5=O)C3)CC2)c(F)c1 (stereo not shown) [Compound 036, 4-((4-(1-((1-(2-(2,6-dioxopiperidin-3-yl)-1,3-dioxoisoindolin-5-yl)pyrrolidin-3-yl)methyl)piperidin-4-yl)-3-fluorophenyl)amino)-2-(piperidin-1-yl) pyrimidine-5-carboxamide]

— US20260167620A1, “MULTIFUNCTIONAL COMPOUND CAPABLE OF DEGRADING BTK KINASE, AND COMPOSITION AND USE” (HANGZHOU HEALZEN THERAPEUTICS CO., LTD., priority 2021, published 2026)
